Test results reported in patent US20200157156A1, “GRATELOUPIA CHIANGII-DERIVED LECTIN AND LECTIN GENE CODING FOR THE SAME” (priority 2018, published 2020).
Structures can show the parent of a compound that is named as a salt.

What was measured:
in vitro = test: in vitro
Experimental: (§1) The antiviral effect was determined through cell viability, and the like using a virus-induced cytopathic effect (CPE) inhibition method and an MTT method.

[1] = test system: herpes simplex virus 2 (HSV2) (MS); test: Antiviral effect, CPE inhibition / MTT, HSV2; format: cell-based
Experimental: as §1

[2] = test system: herpes simplex virus 1 (HSV1) (F); test: Antiviral effect, CPE inhibition / MTT, HSV1; format: cell-based
Experimental: as §1

GCL [3] = test: Hemagglutination inhibition test (carbohydrate specificity of GCL); format: cell-based, Grateloupia chiangii; conditions: 4 haemagglutination activity units of GCL, equine red blood cells
Experimental: The carbohydrate specificity was determined by means of a hemagglutination inhibition test. Proteins and carbohydrates used for the inhibition test included D-glucose (D-Glc), D-mannose (D-Man), D-galactose (D-Gal), N-acetyl-D-glucosamine (GlcNAc), N-acetyl-D-galactosamine (GalNAc), D-fucose (F-Fuc), fructose (Fru), lactose (Lac), and fetuin. A sample (25 μL) having 4 haemagglutination activity units was mixed with each of the carbohydrates (25 μL), and 25 μL of a mixture was removed from each well. An equivalent amount of a 4% suspension of equine red blood cells was added to, and mixed with the sample. The plate was kept at room temperature for 30 minutes, and then confirmed for inhibitory activities.

GCL [4] = test: Glycan microarray (glycan-300 array) binding to GCL; set-up: species or system Grateloupia chiangii; conditions: 50 μg/mL biotinylated lectin; for RFU (Normalized) GCL: Cy3-streptavidin detection
Experimental: A glycan microarray was performed by Ebiogen (Korea). A glycan array kit was purchased from RayBioTech (Norcross, Ga., USA). An array consisting of 300 synthetic glycans printed in quadruplicate on a glass slide was used. Label-based detection was performed according to the manufacturer's protocol. 50 μg/mL of biotinylated lectin was put into wells, and gently shaken for 3 hours or more. The glass slide was washed with 1× washing buffers I and II provided in the kit. The glycan-lectin binding was detected by reacting with Cy3 equivalent dye-conjugated streptavidin at room temperature for an hour. Signals for Cy3 detection were visualized using a microarray laser scanner (Genfix 4100A, Molecular Devices, Sunnyvale, Calif., USA) (excitation at 554 nm, and emission at 568 nm). Data extraction was performed using microarray assay software Genfix. The […] array data was analyzed using RayBioTech (RayBioTech) software.
To determine the carbohydrate specificity, a glycan microarray was carried out using a glycan-300 array kit in which 300 different carbohydrates were immobilized. Referring to FIGS. 6 and 7 and Table 2 below, 18 of the 300 tested carbohydrates produced at least 1,000 positive signals. GCL produced weak binding signals to the monosaccharides, that is, β-Glc-sp, β-Gal-sp, and α-Man-sp. Normalized signal intensities were 2,579, 2,269, and 2,194, respectively. Also, the GCL was able to bind to maltotetraose-β-Sp1 with a signal intensity of 2,705. […] It was that high-mannan structures, that is, Man-α-1,6-(Man-α-1,3-), Man-α-1,6-(GlcNAc-β-1,2-Man-α-1,3-)Man-β-1,4-GlcNAc-β-1, and 4-GlcNAc-Sp5, interacted with the GCL.

fetuin = test: cell-based or functional assay
[5] = Thermal stability of GCL activity; format: physicochemical
Experimental: (§2) The thermal stability of GCL was measured at different temperatures (ranging from 20 to 90° C.). The GCL activities were not affected until the temperature reached 30° C. […] FIG. 5 is a graph for analyzing a change in degree of activity of CGL according to divalent cations added.

[6] = Effect of divalent cations on GCL activity; conditions: presence of divalent cations (Mg2+ and Ca2+)
Experimental: as §2

equine red blood cells = test: Hemagglutination assay, equine red blood cells; format: cell-based, horse
Experimental: (§3) For a hemagglutination assay, horse and sheep blood was purchased (Hanil Comed, Korea). The blood was washed with phosphate buffered saline (PBS, pH 7.3) until a red color of a supernatant disappeared. Each of red blood cells was prepared into a 4% suspension in PBS. The sample was serially diluted in a 96-well U-bottom plate, and a 4% suspension of red blood cells was then added to each well. The sample was kept at room temperature for 30 minutes, and then confirmed for agglutination activities.

ovine red blood cells = test: Hemagglutination assay, ovine red blood cells; format: cell-based, sheep; conditions: 4% suspension, room temperature, 30 minutes
Experimental: as §3

[7] = 4% suspension, room temperature, 30 minutes

Nc1nc2c(ncn2COCCO)c(=O)[nH]1 [Acyclovir]
CC50 (in vitro): > 100 µg/mL | Selective index HSV2 (MS) [1]: >35 | EC50 ([1]; Human alphaherpesvirus 2, footnote: concentration, μM): 2.87 µM | Selective index HSV1 (F) [2]: >192 | EC50 ([2]; Human alphaherpesvirus 1, footnote: concentration, μM): 0.52 µM

O=C[C@@H](O)[C@@H](O)[C@H](O)[C@H](O)CO [D-mannose]
Concentration inhibiting haemagglutination activity of GCL (GCL [3]): 125 mM

CN[C@@H]1[C@@H](O)[C@@H](O[C@@H]2[C@@H](O)[C@H](O[C@H]3OC(CN)=CC[C@H]3N)[C@@H](N)C[C@H]2N)OC[C@]1(C)O [G0056, Sisomicin Sulfate]
RFU (Normalized) GCL (GCL [4]): 1,583 ± 177 RFU

O=C(CO)[C@@H](O)[C@H](O)[C@H](O)CO [fructose]
Concentration inhibiting haemagglutination activity of GCL (GCL [3]): 250 mM

D-cellose-β-Sp1 [G0087]
RFU (Normalized) GCL (GCL [4]): 1,165 ± 82 RFU

Gal-α-1,4-Gal-β-1,4-Glc-β-Sp [G0018]
RFU (Normalized) GCL (GCL [4]): 1,124 ± 47 RFU

Gal-β-1,4-Glc-Sp [H0400]
RFU (Normalized) GCL (GCL [4]): 1,044 ± 110 RFU

Gal-β-1,4-Glc-β-Sp [G0016]
RFU (Normalized) GCL (GCL [4]): 1,260 ± 126 RFU

Glc-α-1,2-Gal-α-Sp [G0048]
RFU (Normalized) GCL (GCL [4]): 1,173 ± 110 RFU

Glc-α-1,4-Glc-β-Sp1 [G0076]
RFU (Normalized) GCL (GCL [4]): 1,238 ± 28 RFU

Grateloupia chiangii-derived lectin (GCL)
inhibition of haemagglutination activity of GCL (4 haemagglutination activity units, equine red blood cells) (fetuin): 195 µg/mL

Maltoheptaose-β-Sp1 [G0083]
Binding of GCL to glycan (GCL [4]): strongly bound | RFU (Normalized) GCL (GCL [4]): 8,132 ± 1,810 RFU

Maltohexaose-β-Sp1 [G0082]
Binding of GCL to glycan (GCL [4]): strongly bound | RFU (Normalized) GCL (GCL [4]): 7,524 ± 1,976 RFU

Maltotetraose-β-Sp1 [G0080]
Normalized signal intensity (GCL [4]): 2,705 | RFU (Normalized) GCL (GCL [4]): 2,577 ± 351 RFU

Man-α-1,6-(Man-α-1,3-)Man-α-1,6-(Gal-β-1,4-GlcNAc-β-1,2-Man-α-1,3-)Man-β-1,4-GlcNAc-β-1,4-GlcNAc-Sp5 [N-011]
RFU (Normalized) GCL (GCL [4]): 1148 ± 173 RFU

Man-α-1,6-(Man-α-1,3-)Man-α-1,6-(GlcNAc-β-1,2-Man-α-1,3-)Man-β-1,4-GlcNAc-β-1,4-GlcNAc-Sp5 [N-010]
RFU (Normalized) GCL (GCL [4]): 1142 ± 116 RFU

Man-α-1,6-(Man-α-1,3-)Man-α-1,6-[Gal-β-1,4-(Fuc-α-1,3-)GlcNAc-β-1,2-Man-α-1,3-]Man-β-1,4-GlcNAc-β-1,4-GlcNAc-Sp5 [N-014]
RFU (Normalized) GCL (GCL [4]): 1129 ± 151 RFU

dextran sulfate 8000
Antiviral activity (EC50) HSV2 (MS) [1]: 4.52 µg/mL | Antiviral activity (EC50) HSV1 (F) [2]: 15.54 µg/mL

pentosan polysulfate [Penosan polysulfate]
Toxicity CC50 (in vitro): >100 µg/mL | Antiviral activity (EC50) HSV2 (MS) [1]: 2.10 µg/mL | Antiviral activity (EC50) HSV1 (F) [2]: 4.77 µg/mL

α-Man-Sp [G0003]
Normalized signal intensity (GCL [4]): 2,194 | RFU (Normalized) GCL (GCL [4]): 2,093 ± 294 RFU

β-Gal-Sp [G0002]
Normalized signal intensity (GCL [4]): 2,269 | RFU (Normalized) GCL (GCL [4]): 2,165 ± 237 RFU

β-Glc-Sp [G0001]
Normalized signal intensity (GCL [4]): 2,579 | RFU (Normalized) GCL (GCL [4]): 2,273 ± 544 RFU

β-GlcNAc-Sp [G0006]
RFU (Normalized) GCL (GCL [4]): 1,104 ± 133 RFU

B1: GCL: lectin protein purified from red alga Grateloupia chiangii by D-mannose affinity chromatography, SEQ ID NO: 1, about 25 kDa (protein)
chain: MVVSNRLVSGESLHRGQHIISSDQHFMLVHQYDGNVVLYDVAGSGSGKPLWSTNTYGSHTTVFKMQEDSNLVLYATGGKPIWASDTHGSGGRFLEMQNDGNLVVYTDVGKPKWASDTHQGIAPRSEISVNQVLRIREGLHSANKRNELILQNDGNLVLSKNGSTAWSSGTAGTGANVLVLQIDGNLVLYNDTKSVWASGSMNKGGRTAVMQDDGNFVLYAEGGKPVWATNT
modifications: GLC
GCL activity according to temperature ([5]; at 40° C.): Half of the activities were lost | Initial activities maintained ([5]; heated at 90° C. for 30 minutes): approximately 15% | GCL activity according to temperature ([5]; until the temperature reached 30° C.): not affected | Change in activity by divalent cations [6]: not highly affected | Agglutination of equine red blood cells (equine red blood cells; [7]): agglutinated | Minimal concentration for agglutination of equine red blood cells (equine red blood cells; [7]): 0.8 µg/mL | Specific activity (Titer/mg) (equine red blood cells; hemagglutination titer per mg protein): 51,200 Titer/mg | Total activity (Titer) (equine red blood cells; hemagglutination titer, purification step from 30 g sample): 33,280 Titer | Toxicity CC50 (in vitro): >5 µg/mL | Antiviral activity (EC50) HSV2 (MS) [1]: 0.036 µg/mL | Agglutination of ovine red blood cells (ovine red blood cells): did not agglutinate | Antiviral activity (EC50) HSV1 (F) [2]: 0.18 µg/mL

B2: fetuin (protein, UniProt P12763 19-359, looked up)
Alpha-2-HS-glycoprotein: IPLDPVAGYKEPACDDPDTEQAALAAVDYINKHLPRGYKHTLNQIDSVKVWPRRPTGEVYDIEIDTLETTCHVLDPTPLANCSVRQQTQHAVEGDCDIHVLKQDGQFSVLFTKCDSSPDSAEDVRKLCPDCPLLAPLNDSRVVHAVEVALATFNAESNGSYLQLVEISRAQFVPLPVSVSVEFAVAATDCIAKEVVDPTKCNLLAEKQYGFCKGSVIQKALGGEDVRVTCTLFQTQPVIPQPQPDGAEAEAPSAVPDAAGPTPSAAGPPVASVVVGPSVVAVPLPLHRAHYDLRHTFSGVASVESSSGEAFHVGKTPIVGQPSIPGGPVRLCPGRIRYFKI
Concentration inhibiting haemagglutination activity of GCL (GCL [3]): 195 µg/mL
